Measured values: patent US4871528A, “Pharmaceutical compositions having antineoplastic activity” (Boehringer Biochemia Robin SpA, priority 1986, dated 1989)
Values after ≈ are worked out from the molar mass of the structure shown. Like-named read-outs stand apart in the source and are kept apart here.

Legend:
[1] = tested on: advanced and relapsing ovarian tumor; experiment: high-dose cis-platinum+GSH in a patient with advanced and relapsing ovarian tumor (Example 3A); type: in vivo, human; settings: in combination with glutathione
Experimental: However, in the therapeutical practice, the treatment is usually interrupted after 2 or 3 cycles (400 mg/m^2 or 600 mg/m^2) because of the onset of serious side-effects, which can even be fatal.
A patient having an advanced and relapsing ovarian tumor previously treated with cis-platinum, was treated with a combination of cis-platinum+GSH every four weeks. Cis-platinum was administered at a weekly dosage of 200 mg/m^2 (40 mg/m^2 i.v. in normal saline at 1-5 days) for five weeks; GSH was administered i.v. at a dosage of 35 mg/ mg of cis-platinum in normal saline, 30 minutes before administration of cis-platinum. The week of administration (5 administrations) was followed by three weeks of rest, and then the cycle was repeated, and so on, for a total of 5 cycles of administration extending over 17 weeks (5 weeks of actual treatment and 12 weeks (3 weeks X 4) of rest intervals).

[2] = tested on: advanced and relapsing ovarian tumor; settings: administered without glutathione; severe side-effects; cited from earlier work
P388 leukemia [3] = experiment: Effect of GSH (i.v.) at different doxorubicin dosages (i.p.) on P388 leukemia in mice (Table 2); type: in vivo; settings: for LTS >60 days / T/C % / TOX: in combination GSH 1500 mg/kg i.v.; for TMS: in combination GSH 1500 mg/kg i.v. 30' before
Experimental: The experimental conditions are similar to that of the previous test.
In these tests, the glutathione has been administered i.v., 30' before of the optional i.p. administration of anthracycline, doxorubicin.
The GSH treated animals received an equal amount of drug (1500 mg/kg) whereas the doxorubicin treated animals received i.p. scalar amounts of anthracycline. The animals consecutively treated with GSH and DX received the two drugs in the ratios of 100, 125, 150 and 200 mg of GSH per mg of DX.

[4] = tested on: P388/DX resistant leukemic cells; experiment: Effect of GSH and doxorubicin on DX-resistant P388/DX leukemia in CD2F1 mice (Table 4); type: in vivo
Experimental: (§1) The experiments were carried out in a similar way to the experimental scheme of the previous tests 2 and 3. The glutathione was administered i.v. 30, before of doxorubicin. In the tests, whose experimental data are reported in the Tables 3 and 4, the doxorubicin is administered i.p. at a sub-optimal dose level (for the used treatment schedule), in order to evidentiate the synergic effect of the glutathione treatment.
In the case of inoculation of P388/DX resistant leukemic cells an intermediate dose of glutathione was administered, corresponding to GSH/DX ratio of 25 mg/mg (total dose of GSH 187.5).

[5] = tested on: anthracycline (doxorubicin) induced myocardiotoxicity; experiment: Protective effect of glutathione on doxorubicin induced myocardiotoxicity in rats; type: in vivo, Sprague Dawley rats; settings: doxorubicin 3 mg/kg i.v. and/or GSH i.v. 30 minutes before, every 7 days, 4 times; 8 weeks
Experimental: Twenty-four Sprague Dawley rats, weighing 150-200 g, fed with standard diet and water "ad libitum", were randomized in 4 groups (A,B,C,D) 6 animals each.
Six animals were treated i.v. in the morning (10 am.) with […]) dissolved in normal saline (total injected volume 1 ml/kg). After 30 minutes, the same animals were treated i.v. with doxorubicin (3 mg/kg) dissolved in normal saline (total injected volume 1 ml/kg).
The treatment has been then repeated after 7 days, for 4 consecutive times as a whole.
Six animals were treated similarly to group A, except that glutathione was omitted and substituted with normal saline only.
Six animals were treated similarly to group A, except that doxorubicin was substituted with normal saline only.
Six animals were treated similarly to group A except that both drugs were substituted with normal saline.
The day of the first administration was defined "zero day" and all the animals were killed after 8 weeks from the start of the experiment.
During the experiment, starting from the zero time, all the animals were evaluated weekly for body weight increase, electrocardiographic intervals Q-T and S-T.
After the 8-week experiment, the necroscopic examination allowed to evaluate for each animal the degree of myocardial lesions expressed as an average of vacuolate cells for 10 observation fields at the optical microscope (200 x).

P388 leukemia [6] = experiment: GSH and Doxorubicin effect on P388 leukemia in CD2F1 mice (Table 3); type: in vivo; settings: GSH 375 mg/kg i.v. and/or DX 7,5 mg/kg i.p. (GSH/DX 50)
Experimental: as §1
In the test of Table 3 wherein P388 leukemic cells were inoculated, variable dosages of glutathione were used, with respect to the fixed dose of DX (7.5 mg/kg) so as to provide GSH/DX ratios respectively of 20 and 50 mg of GSH per mg of DX.

P388 leukemia [7] = experiment: Effect of GSH (i.v.) at different doxorubicin dosages (i.p.) on P388 leukemia in mice (Table 2); type: in vivo; settings: DX 12,5 mg/kg i.p.
P388 leukemia [8] = type: in vivo
Experimental: In the Table 1, the results obtained in CD2F1 mice i.p. treated at the day 0 with […] P388 leukemia cells and treated. i.p. at the day 1 with doxorubicin (DX) (7.5 mg/kg) and/or with GSH (333 mg/mg doxorubicin) are reported.
The GSH was administered 30 min. before DX.
The experiment of the combination GSH+DX was repeated in 2 groups of animals.
TMS means mean survival time in days, T/C % is a percent value of the response of drug treated animals in comparison with the control, taken as 100.
TOX means the number of treated animals died before the control animals. LTS is the number of animals survived at long term (2 months at least).
It should be stressed that the test used an experimental model, the P388 leukemia, characterized by an exclusively intraperitoneal tumor growth, i.e. a growth in the cavity wherein the insulation of the tumoral cells has been carried out.

[9] = tested on: human HT-29 cells (colon carcinoma); experiment: In vitro activity of GSH and methotrexate on human HT-29 cells; type: cell-based; settings: MTX 24 h, read-out: concentration causing 50% of cell death
Experimental: (5) In vitro activity of GSH and methotrexate (MTX) on human HT-29 cells (colon carcinoma). Human HT-29 cells (colon carcinoma) were used; the cells were pre-treated with GSH at the concentrations of 20 and 40 mg/ml and then exposed to MTX at the concentrations of 0.05, 0.1, 0.5 and 1 mg/ml for 24 h. The concentrations causing 50% of cell death turned out to be 0.12 mg/ml in the absence of GSH and about 0.04-0.06 mg/ml in the presence of GSH. The cells were cultivated in RPMI 1640 medium+10% of fetal calf serum.

[10] = GSH 187,5 mg/kg i.v. and/or DX 7,5 mg/kg i.p.
[11] = in combination GSH 1500 mg/kg i.v.
[12] = day 1 i.p.: DX 7.5 mg/kg and/or GSH 333 mg/mg doxorubicin

Compound: N.N.[Cl][Pt][Cl] [CDDP, cis-diamine-dichloroplatinum]
- maximum applicable dosage of cis-platinum [1]: about 1000 mg/m^2
- maximum dosage of cis-platinum [2]: 400-600 mg/m^2

Compound: COc1cccc2c1C(=O)c1c(O)c3c(c(O)c1C2=O)C[C@@](O)(C(=O)CO)C[C@@H]3O[C@H]1C[C@H](N)[C@H](O)[C@H](C)O1 [DX, doxorubicin]
- LTS >60 days (P388 leukemia [3]; DX 10 mg/kg i.p.): 0/8
- T/C % (P388 leukemia [3]; DX 10 mg/kg i.p.): 170%
- TOX (P388 leukemia [3]; DX 10 mg/kg i.p.): 0/8
- TMS (P388 leukemia [3]; DX 10 mg/kg i.p.): 17 days
- LTS >60 days (P388 leukemia [3]; DX 15 mg/kg i.p.): 0/8
- T/C % (P388 leukemia [3]; DX 15 mg/kg i.p.): 60%
- TOX (P388 leukemia [3]; DX 15 mg/kg i.p.): 8/8
- TMS (P388 leukemia [3]; DX 15 mg/kg i.p.): 6 days
- LTS >60 days (P388 leukemia [3]; DX 7,5 mg/kg i.p.): 0/8
- T/C % (P388 leukemia [3]; DX 7,5 mg/kg i.p.): 155%
- TOX (P388 leukemia [3]; DX 7,5 mg/kg i.p.): 0/8
- TMS (P388 leukemia [3]; DX 7,5 mg/kg i.p.): 15,5 days
- LTS >60 days (P388 leukemia [3]; DX 12,5 mg/kg i.p.): 0/8
- LTS [4, 10]: 0/10
- T/C % [4, 10]: 118%
- TOX [4, 10]: 0/10
- TMS ([4]; GSH 187,5 mg/kg i.v. and/or DX 7,5 mg/kg i.p. (GSH/DX 25 mg/mg)): 11,4 days
- body growth curve, ECG recording (Q-T, S-T), number of vacuolate myocardial cells [5]: toxic and cardiological effects
- LTS (P388 leukemia [6]): 0/10
- T/C % (P388 leukemia [6]): 163%
- TMS (P388 leukemia [6]): 16,7 days
- TOX (P388 leukemia [6]): 0/10
- T/C % (P388 leukemia [7]; [11]): 120%
- TOX (P388 leukemia [7]; [11]): 4/8
- TMS (P388 leukemia [7]; in combination GSH 1500 mg/kg i.v. 30' before): 12 days
- LTS (number of animals survived at long term, 2 months at least) (P388 leukemia [8]; [12]): 0/10
- T/C % (P388 leukemia [8]; [12]): 140%
- TOX (number of treated animals died before the control animals) (P388 leukemia [8]; [12]): 0/10
- TMS (mean survival time) (P388 leukemia [8]; day 1 i.p.: DX 7.5 mg/kg and/or GSH 333 mg/mg doxorubicin 30 min. before DX): 16 days

Compound: CN(Cc1cnc2nc(N)nc(N)c2n1)c1ccc(C(=O)N[C@@H](CCC(=O)O)C(=O)O)cc1 [MTX, methotrexate]
- IC50 ([9]; in the absence of GSH): 120 µg/mL (≈ 264 µM)
- IC50 ([9]; in the presence of GSH (pre-treated at 20 and 40 mg/ml)): 40 to 60 µg/mL
